From PubChem BioAssay AID1996 come the findings set out here.

Each structure is given as a SMILES string. Values after ≈ are worked out from the molar mass of the structure shown.

The conditions of the data set: buffer; pH 7.4; 200.0 µM.
`Cc1cc(-c2ccc([N+](=O)[O-])cc2)nc2ccccc12.Cl` gave a kinetic solubility of 1 µg/mL.

Consider `Cc1cccc(N2C(=O)C3CCCN3C2=S)c1C` (configuration not stated), for which the kinetic solubility worked out at 38.4 µg/mL (≈ 147 µM).

The compound `S=C(Nc1ccc(Cl)c(Cl)c1)N1CCCC1` had a kinetic solubility of 3.3 µg/mL (≈ 12 µM).

On to `O=C(NCCCNC(=O)c1cnccn1)c1ccc(Br)cc1`, for which the kinetic solubility was determined as 52.2 µg/mL (≈ 144 µM).

Regarding `COc1ccc(/C=N/NC(=O)c2ccc[nH]2)cc1`, the solubility (kinetic) was over 36.5 µg/mL.

Compound `CCc1ccc(Nc2ncc3c(n2)CC(C)(C)CC3=O)cc1` showed a solubility (kinetic) of 1.1 µg/mL (≈ 3.72 µM).

As to `N#C/C(=C\c1ccc(N2CCCCC2)o1)C(N)=O`, the solubility (kinetic) was over 36.8 µg/mL.

For `CC1(C)SC[C@H](C(=O)Nc2cccc(Cl)c2)N1C=O`, the solubility (kinetic) was over 44.8 µg/mL.

For the compound `Clc1cc2nc(-c3cccnc3Cl)[nH]c2cc1Cl`, the kinetic solubility was 0.8 µg/mL (≈ 2.68 µM).

The compound `CC1CC(=O)Nc2ccccc2N1C(=O)COc1ccc2ccccc2c1` (configuration not stated) came in with a solubility (kinetic) of 8.8 µg/mL (≈ 24.4 µM).

As for `CCc1ccc(NC(=O)NCc2ccc3c(c2)OCO3)cc1`, the kinetic solubility is 0.6 µg/mL (≈ 2.01 µM).

Consider `CC(C(=O)O)c1ccc(N2Cc3ccccc3C2=O)cc1` (configuration not stated), for which the kinetic solubility is over 42.2 µg/mL.

For `Clc1nc(CN2CCCCC2)nc2sc3c(c12)CCC3`, the solubility (kinetic) is over 46.2 µg/mL.

`O=C(CSc1ncccn1)Nc1ccc2[nH]c(=O)[nH]c2c1` had a solubility (kinetic) of over 45.2 µg/mL.

The compound `COc1cccc(C2NC(=O)NC(C)=C2C(=O)OCC2CCCO2)c1` (configuration not stated) gave a kinetic solubility of 44.9 µg/mL (≈ 130 µM).

For the compound `COc1ccc2[nH]cc(CCN(C)C)c2c1`, the kinetic solubility is over 32.7 µg/mL.

Compound `CN=C(Nc1cccnc1)c1ccccc1` returned a solubility (kinetic) of over 31.7 µg/mL.

In turn, `COc1ccccc1NC(=O)C(C)N(C)CCOc1ccccc1` (configuration not stated) gave a kinetic solubility of 23.1 µg/mL (≈ 70.3 µM).

`Cc1ccc2nc(NC(=O)c3ccccc3F)sc2c1` returned a solubility (kinetic) of under 0.3 µg/mL.

For the compound `N#Cc1cccc(NC(=O)CCNC(=O)c2ccccc2Cl)c1`, the solubility (kinetic) is over 49.2 µg/mL.

`Cn1c(N)c(Br)c(-c2ccc(F)cc2)c(C#N)c1=O` showed a kinetic solubility of 8 µg/mL (≈ 24.8 µM).

Compound `CCC(C)c1ccc(NC(=O)COC(=O)C2CCCC2)cc1` (configuration not stated) registered a solubility (kinetic) of 8.8 µg/mL (≈ 29 µM).

Compound `Cn1c(=O)[nH]c(=O)c2c1nc1n2CC(COc2ccc3ccccc3c2)O1` (configuration not stated) displayed a solubility (kinetic) of 0.4 µg/mL (≈ 1.1 µM).

`Cc1nc(NC(=O)CCc2ccccc2)sc1C`: the kinetic solubility came to 18.7 µg/mL (≈ 71.8 µM).

In turn, `O=C(/C=C/c1ccc(F)cc1)N1CC[C@@]2(O)CCCC[C@H]2C1` gave a kinetic solubility of over 45.5 µg/mL.

In the case of `O=C(Nc1ccccc1)c1cn2ccccc2n1`, the solubility (kinetic) was 14.7 µg/mL (≈ 62 µM).

Turning to `Cc1cc(Cl)nc(Cl)c1C(=O)NC(=O)NCCC(C)C`, the solubility (kinetic) worked out at 34.7 µg/mL (≈ 109 µM).

For `CC(=O)c1ccc(N2CCN(C(=O)Nc3cccc(F)c3)CC2)cc1`, the solubility (kinetic) came to 4.8 µg/mL (≈ 14.1 µM).

As to `COc1ccc(CCN=Cc2ccccc2O)cc1OC`, the kinetic solubility is over 42.8 µg/mL.

Turning to `Cc1cc(C)cc(N2C(=O)C3CCCN3C2=S)c1` (configuration not stated), the solubility (kinetic) is over 39.1 µg/mL.

Turning to `CCOC(=O)CCCC(=O)N1CCOCCOCCOCC1`, the solubility (kinetic) is over 47.6 µg/mL.

The compound `Cc1occc1C(=O)N1CCN(c2ccc(Cl)cc2)CC1` yielded a kinetic solubility of 43.6 µg/mL (≈ 143 µM).

In turn, `c1ccc(CC(NCc2ccco2)c2ccccc2)cc1` (configuration not stated) had a solubility (kinetic) of 13.6 µg/mL (≈ 49 µM).

The compound `O=[N+]([O-])c1cccnc1Sc1ccc(Cl)cc1` came in with a kinetic solubility of 0.7 µg/mL (≈ 2.62 µM).

`Cn1c([O-])c(Cc2cccc(Cl)c2Cl)c(=O)n(C)c1=O.[NH4+]` had a solubility (kinetic) of 43.6 µg/mL.

In turn, `CCOC(=O)c1cc(NC(=O)N(C)C2CCCCC2)c(C)nc1C` showed a kinetic solubility of over 50 µg/mL.

As for `Cc1cc(C)c(NC(=O)CSCc2c(C)noc2C)c(C)c1`, the kinetic solubility was 28.1 µg/mL (≈ 88.2 µM).

In turn, `C=CCN(Cc1nc(-c2ccccc2)no1)C(=O)c1ccco1` registered a solubility (kinetic) of 38.4 µg/mL (≈ 124 µM).

For the compound `CCCOC(=O)Nc1cc(OC)ccc1[N+](=O)[O-]`, the kinetic solubility came to 5.7 µg/mL (≈ 22.4 µM).

As for `COc1ccc(C(=O)Nc2ccccc2N2CCCC2)cc1`, the solubility (kinetic) turned out to be 25.6 µg/mL (≈ 86.4 µM).

Compound `Cc1ccc(OCCn2ccnc2)c(C)c1` had a kinetic solubility of 22.8 µg/mL (≈ 105 µM).

The compound `CCOCCCNC(=O)c1cc2c(=O)n3cccc(C)c3nc2s1` returned a solubility (kinetic) of 4.1 µg/mL (≈ 11.9 µM).

`Cc1sc2nc(COC(=O)c3c(F)cccc3F)[nH]c(=O)c2c1C` showed a solubility (kinetic) of 4.2 µg/mL (≈ 12 µM).

In turn, `Cc1ccc(C23CC4CC(CC(C(=O)NC(C)C(=O)O)(C4)C2)C3)cc1` (configuration not stated) registered a kinetic solubility of over 51.2 µg/mL.

Take `O=[N+]([O-])c1ccccc1S(=O)(=O)Nc1cccnc1`: the kinetic solubility is over 41.9 µg/mL.

In the case of `CC(=O)N(OCc1ccc(OC(C)C)c(Cl)c1)C(C)=O`, the kinetic solubility is 38.1 µg/mL (≈ 127 µM).

Compound `Cc1cc(C(C)(C)C)cc(C)c1COC(=O)c1cccnc1` gave a solubility (kinetic) of 1.7 µg/mL (≈ 5.72 µM).

Compound `O=C(NCc1cccnc1)c1ccc([N+](=O)[O-])cc1` showed a solubility (kinetic) of over 38.6 µg/mL.

`Cc1ccc(CNC(=O)CNC(=O)c2ccc(C(C)(C)C)cc2)n1C` came in with a solubility (kinetic) of over 51.2 µg/mL.

In turn, `Nc1nc(O)c(Sc2ccccc2[N+](=O)[O-])c(=O)[nH]1` returned a kinetic solubility of over 42 µg/mL.

Take `Cn1cnc(S(=O)(=O)Nc2ccc(OC(F)F)cc2)c1`: the solubility (kinetic) is over 45.5 µg/mL.

For `O=C(Nc1ccccc1)c1c(O)c2c(n(Cc3ccco3)c1=O)CCCC2`, the kinetic solubility is under 0.4 µg/mL.
